# Source: US7932271B2, “Heterocyclic methyl sulfone derivative” (Daiichi Pharmaceutical Co., Ltd., priority 2003, dated 2011)
# Tested on: β amyloid protein (Aβ) secreted by E35 cells (human glioma H4 cells transfected with APP751 gene)
# Experiment: Inhibition of production or secretion of β-amyloid protein (Aβ) in E35 cells, sandwich ELISA of the supernatant
# Type: cell-based
# Details: 24 hours with test compound, compared to DMSO control cells, read-out: Activity (IC50, concentration at which 50% inhibition of Aβ production was observed)
# Procedure: The inhibitory activity against formation of β amyloid protein of the compounds obtained in Examples was tested in the method described bellow.
# E35 cells were established by transfecting APP751 gene which is a wild type human β-amyloid protein precursor into human glioma cells (H4 cells).
# E35 cells were seeded in 96-well plates and cultured in an incubator of 37° C. by using a Dulbecco's Modified Eagle's Medium containing 10% inactivated fetal bovine serum (10% FBS-DMEM). Twenty-four hours after seeding, a test compound dissolved in DMSO so as to give its concentration to be 2000 times as much as that of the final concentration was added to the medium in an amount of 1/2000 capacity of the culture medium. The cells were cultured for additional twenty-four hours, and then the supernatant was collected. The amount of β amyloid protein (Aβ) secreted in the supernatant was measured by the sandwich enzyme-linked immunosorbent assay (ELISA). Described specifically, a monoclonal antibody 25-1, which recognized Aβ25-35, was immobilized onto a 96-well ELISA plate, followed by the incubation at 4° C. for 16 to 20 hours. After washing with a phosphate buffer (pH 7.4) (PBS), a biotinylated monoclonal antibody MA32-40, which recognized Aβ1-8, was added, and the plate was kept at 4° C. for 2 hours. After the supernatant was removed and the well was washed sufficiently with PBS, alkaline phosphatase-conjugated streptavidin was added to the plate. Absorbance was measured while adding BlouPhos (manufactured by KPL) as a substrate. An amount of Aβ contained in the supernatant was calculated using a calibration curve separately created using Aβ of a known concentration. IC50 of the test compound was presented as the concentration at which 50% inhibition of Aβ production was observed compared to the amount of Aβ of the control cells to which only DMSO was added.
# When there is at least 10-times difference between the IC50 and the concentration at which cytotoxicity appears, then the compound is judged as a compound having an inhibitory activity against production or secretion of β amyloid protein.
row,Compound,IC50
1,"CN(C)CCS(=O)(=O)Nc1cc(C(c2cc(F)ccc2F)S(=O)(=O)c2ccc(Cl)cc2)c(Cl)cn1 (centres unmarked) [Example 279, N-[5-Chloro-4-[(4-chlorophenylsulfonyl)(2,5-difluorophenyl)methyl]pyridin-2-yl]-2-(dimethylamino)ethanesulfonamide]",< 5 nM
2,"OC1CCN(c2cc(C(Sc3ccc(Cl)cc3)c3cc(F)ccc3F)c(Cl)cn2)CC1 (centres unmarked) [Example 115, 5-Chloro-4-[(4-chlorophenylthio)-(2,5-difluorophenyl)methyl]-2-(4′-hydroxypiperidin-1′-yl)pyridine]",< 5 nM
3,O=S(=O)(c1ccc(Cl)cc1)C(c1cc(F)ccc1F)c1cc(N2CCC[C@H]2CO)ncc1Cl (some centres unmarked) [Example 111],5 to 50 nM
4,"CS(=O)(=O)Nc1cc(C(Sc2ccc(Cl)cc2)c2cc(F)ccc2F)c(Cl)cn1 (centres unmarked) [220 (B), N-[5-chloro-4-[(4-chlorophenylthio)(2,5-difluorophenyl)methyl]pyridin-2-yl]methanesulfonamide]",50 to 500 nM
5,"CS(=O)(=O)CCNc1cc(C(c2cc(F)ccc2F)S(=O)(=O)c2ccc(Cl)cc2)c(Cl)cn1 (centres unmarked) [Example 176, 5-Chloro-4-[(4-chlorophenylsulfonyl)-(2,5-difluorophenyl)methyl]-2-[(2-methylsulfonylethyl)amino]pyridine]",< 5 nM
6,"NCC1CN(c2cc(C(c3cc(F)ccc3F)S(=O)(=O)c3ccc(Cl)cc3)c(Cl)cn2)CCO1 (centres unmarked) [Example 114, 2-Aminomethyl-4-[5-chloro-4-[(4-chlorophenylsulfonyl)-(2,5-difluorophenyl)methyl]pyridin-2-yl]morpholine]",5 to 50 nM
7,"COC(=O)OCc1ccc(C(c2cc(F)ccc2F)S(=O)(=O)c2ccc(Cl)cc2)nc1 (centres unmarked) [Example 84, [6-(4-Chlorophenylsulfonyl)(2,5-difluorophenyl)methylpyridin-3-yl]methyl methylcarbonate]",50 to 500 nM
8,"COc1c(C(c2cc(F)ccc2F)S(=O)(=O)c2ccc(Cl)cc2)c(=O)oc2ccccc12 (centres unmarked) [23 (Compound A), 3-[[(4-Chlorophenyl)sulfonyl]-(2,5-difluorophenyl)methyl]-4-methoxychromen-2-one]",5 to 50 nM
9,"CS(=O)(=O)Nc1cc(C(c2cc(F)ccc2F)[S+]([O-])c2ccc(Cl)cc2)c(Cl)cn1 (centres unmarked) [Example 221, N-[5-Chloro-4-[(4-chlorophenylsulfinyl)(2,5-difluorophenyl)methyl]pyridin-2-yl]methanesulfonamide]",< 5 nM
10,"O=S(=O)(c1ccc(Cl)cc1)C(c1cc(F)ccc1F)c1cc(NCCN2CCOCC2)ncc1Cl (centres unmarked) [Example 106, 4-[2-[5-Chloro-4-[(4-chlorophenylsulfonyl)-(2,5-difluorophenyl)methyl]pyridin-2-yl]aminoethyl]morpholine]",< 5 nM
11,"CNCCN(C)c1cc(C(c2cc(F)ccc2F)S(=O)(=O)c2ccc(Cl)cc2)c(Cl)cn1 (centres unmarked) [Example 109, 5-Chloro-4-[(4-chlorophenylsulfonyl)-(2,5-difluorophenyl)methyl]-2-[N-methyl-N-[2-(methylamino)ethyl]amino]pyridine]",5 to 50 nM
12,"NNc1cc(C(c2cc(F)ccc2F)S(=O)(=O)c2ccc(Cl)cc2)c(Cl)cn1 (centres unmarked) [Example 222, [5-Chloro-4-[(4-chlorophenylsulfonyl)(2,5-difluorophenyl)methyl]pyridin-2-yl]hydrazine]",5 to 50 nM
13,"O=S(=O)(c1ccc(Cl)cc1)C(c1cc(F)ccc1F)c1cc(Cl)ncc1Cl (centres unmarked) [Example 57, 2,5-Dichloro-4-[(4-chlorophenylsulfonyl)-(2,5-difluorophenyl)methyl]pyridine 0.5 hydrate]",5 to 50 nM

# Tested on: not given
# Experiment: not given
# Details: not given
row,Compound,melting point
1,"CC(C)(CO)CNc1cc(C(c2cc(F)ccc2F)S(=O)(=O)c2ccc(Cl)cc2)c(Cl)cn1 (centres unmarked) [Example 195, 3-[5-Chloro-4-[(4-chlorophenylsulfonyl)(2,5-difluorophenyl)methyl]pyridin-2-ylamino]-2,2-dimethylpropan-1-ol]",176 to 178 °C
